We go through seven molecules from publication PMC11249646, “Small-Molecule Disruptors of the Interaction between Calcium- and Integrin-Binding Protein 1 and Integrin αIIbβ3 as Novel Antiplatelet Agents” (ACS Pharmacology & Translational Science, 2024).

For experiment [1], the target named is T1, CIB1 and αIIb interaction (CIB1-GST : F-αIIb peptide) (Homo sapiens, UniProt Q99828).
T1 construct: made in house; host or cells: BL-21 plus RIL cells (E. coli)
T1 sequence (Q99828 1-191): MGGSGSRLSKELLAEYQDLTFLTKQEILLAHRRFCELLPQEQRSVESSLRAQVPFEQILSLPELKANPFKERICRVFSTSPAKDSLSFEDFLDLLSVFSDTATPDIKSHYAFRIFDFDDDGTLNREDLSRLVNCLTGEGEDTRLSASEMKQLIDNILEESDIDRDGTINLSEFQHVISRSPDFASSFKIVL
As to the kind of experiment: FP assay, 1536-well qHTS format (primary and confirmatory screen). To be noted: for Curve Class (confirmatory screen) / CONFIRMATORY SCREEN Curve Class: qHTS curve class. It counts as binding. In general terms: qHTS replaces the single test concentration by a dilution series.

Experiment [2] deals with T2, GST-CIB1 : F-scrambled peptide (Homo sapiens, UniProt Q99828).
T2 construct: made in house; host or cells: BL-21 plus RIL cells (E. coli)
T2 sequence (Q99828 1-191): T1 sequence (Q99828 1-191)
As to the kind of experiment: FP scrambled-peptide counter screen, 1536-well format. It counts as binding. To be noted: for Curve Class (counterscreen) / COUNTERSCREEN Curve Class: qHTS curve class; for IC50: read-out: IC50 [μM] (counterscreen).

Setting [3] is: confirmatory screen, negative sign = inhibitory curve.
Setting [4] is: confirmatory screen, read-out: IC50 [μM] (confirmatory screen).
[5] abbreviates: qHTS primary screen hits, Table S2, negative = inhibition.
Where [6] appears, read: qHTS primary screen hits, Table S2, read-out: IC50.
[7] abbreviates: counterscreen, negative sign = inhibitory curve.
Setting [8] is: qHTS primary screen hits, Table S2, negative sign = inhibitory curve.
Setting [9] is: scrambled-peptide counterscreen.
Where [10] appears, read: Table S3, confirmatory screen, YES/NO call.
[11] abbreviates: Table S3, confirmatory screen, a negative sign marks inhibitory curves.
Setting [12] is: Table S3, confirmatory screen, negative = inhibition.
[13] abbreviates: Table S3, counterscreen, a negative sign marks inhibitory curves.
Setting [14] is: Table S3, counterscreen, negative = inhibition.
Setting [15] is: qHTS FP screen hits, Table S2, negative = inhibition.
Where [16] appears, read: qHTS FP screen hits, Table S2, read-out: IC50.

Like-named read-outs stand apart in the source and are kept apart here.

Turning to `CC1=C[C@@H]2[C@H]([C@@H](O)C[C@@]3(C)[C@H]2C[C@@H](C)[C@]3(O)C(=O)CO)[C@@]2(C)Cc3cnn(-c4ccccc4)c3C=C12` [NCGC00242505-01], in experiment [1] (confirmatory screen), the “Efficacy (%) (confirmatory screen)” value is recorded as -46%. In addition, the “Confirm? (confirmatory screen)” value in experiment [1] (confirmatory screen, YES/NO) is “YES”. For the same molecule, the “Curve Class (confirmatory screen)” value in experiment [1] (setting [3]) is recorded as -1.4. Also, the values for the IC50 in experiment [1] (setting [4]), in experiment [1] (setting [6]) and in experiment [2] (counterscreen) were 15.8 µM, 37.6 µM and 12.6 µM, respectively. In addition, in experiment [1] (setting [5]), the “Efficacy (%)” value was -30%. For the same molecule, in experiment [2] (counterscreen), the “Efficacy (%) (counterscreen)” value is reported as -41%. Further, the “Curve Class (counterscreen)” value in experiment [2] (setting [7]) is -1.2.

As for `Cc1ccc(CNc2ncnc3ccc(-c4ccc([C@@H](C)O)o4)cc23)o1` [NCGC00189251-01], the “Efficacy (%) (confirmatory screen)” value in experiment [1] (confirmatory screen) is -58%. Also, the “Confirm? (confirmatory screen)” value in experiment [1] (confirmatory screen, YES/NO) is reported as “YES”. In addition, the “Curve Class (confirmatory screen)” value in experiment [1] (setting [3]) is -1.2. For the same molecule, the IC50 (commonly the concentration that inhibits the measured activity by half) in experiment [1] (setting [4]) is 28.2 µM; in experiment [2] (counterscreen), 39.8 µM. In experiment [2] (counterscreen), the “Efficacy (%) (counterscreen)” value was -36%. Moreover, the “Curve Class (counterscreen)” value in experiment [2] (setting [7]) is reported as -2.2.

For the molecule `O=C(Cc1ccc(Cl)c(Cl)c1)Nc1ccc(S(=O)(=O)Nc2nncs2)cc1.O=C(O)C(F)(F)F` [NCGC00248349-02], the “CONFIRMATORY SCREEN Confirm?” value in experiment [1] (confirmatory screen, YES/NO call) is on record as “YES”. For the same molecule, the “CONFIRMATORY SCREEN Curve Class” value in experiment [1] (setting [3]) was -1.4. In addition, the “CONFIRMATORY SCREEN Efficacy (%)” value in experiment [1] (confirmatory screen, negative = inhibition) is -31%. For the same molecule, the IC50 in experiment [1] (confirmatory screen, read-out: CONFIRMATORY SCREEN IC50) came to 12.6 µM. For the same molecule, the “Efficacy (%)” value in experiment [1] (setting [5]) was -24%. In experiment [1] (setting [8]), the “Curve Class” value is reported as -1.4. Moreover, the IC50 in experiment [1] (setting [6]) came out at 11.2 µM. Besides, in experiment [2] (setting [9]), the “COUNTERSCREEN Efficacy (%)” value stood at 12% and the “COUNTERSCREEN Curve Class” value amounted to 4. Besides, the “COUNTERSCREEN Confirm?” value in experiment [2] (scrambled-peptide counterscreen, YES/NO call) is “YES”.

Turning to `CO[C@@H]1C(N(C)C(=O)c2ccccc2)C[C@H]2O[C@]1(C)n1c3ccccc3c3c4c(c5c6ccccc6n2c5c31)C(=O)NC4=O` (stereo partly shown) [NCGC00345083-01], the “Confirm? (confirmatory screen)” value in experiment [1] (setting [10]) is on record as “YES”. The “Curve Class (confirmatory screen)” value in experiment [1] (setting [11]) was -1.2. Besides, the “Efficacy (%) (confirmatory screen)” value in experiment [1] (setting [12]) is -78%. The IC50 was 14.1 µM in experiment [1] (Table S3, confirmatory screen, read-out: IC50 [μM] (confirmatory screen)); 19.2 µM in experiment [1] (setting [6]); 22.4 µM in experiment [2] (Table S3, counterscreen). The “Efficacy (%)” value in experiment [1] (setting [5]) is -67%. Also, in experiment [1] (qHTS primary screen hits, Table S2, negative sign = inhibitory curve, several classes where COUNT > 1), the “Curve Class” value is listed as -2.2. The “Curve Class (counterscreen)” value in experiment [2] (setting [13]) is -1.1. In experiment [2] (setting [14]), the “Efficacy (%) (counterscreen)” value is on record as -150%.

Consider `CN1CCc2ccc3c4c2[C@]1(C)Cc1cccc(c1-4)OCO3` [NCGC00168048-01], for which the “Confirm? (confirmatory screen)” value in experiment [1] (setting [10]) was “YES”. The “Curve Class (confirmatory screen)” value in experiment [1] (setting [11]) is listed as -2.1. Moreover, in experiment [1] (setting [12]), the “Efficacy (%) (confirmatory screen)” value is -118%. Besides, the “Efficacy (%)” value in experiment [1] (setting [15]) was -100%. Besides, the “Curve Class” value in experiment [1] (qHTS FP screen hits, Table S2, one class per curve where COUNT > 1, negative sign = inhibitory curve) is recorded as -2.1. Besides, the IC50 in experiment [1] (setting [16]) is 39.8 µM; in experiment [2] (Table S3, counterscreen), 31.6 µM. Also, the “Curve Class (counterscreen)” value in experiment [2] (setting [13]) was -2.1. For the same molecule, the “Efficacy (%) (counterscreen)” value in experiment [2] (setting [14]) is reported as -136%.

Take `CC1CCC2(C1)N=C(Nc1nc3ccccc3o1)NC1=C2C(=O)CCC1.O=C(O)C(F)(F)F` (stereo not shown) [NCGC00188039-01]: in experiment [1] (confirmatory screen), the “CONFIRMATORY SCREEN Efficacy (%)” value is listed as -33% and the “CONFIRMATORY SCREEN Curve Class” value turned out to be 4. The “Efficacy (%)” value in experiment [1] (setting [5]) is -25%. In addition, the “Curve Class” value in experiment [1] (setting [8]) is reported as -2.4. Moreover, the IC50 in experiment [1] (setting [6]) was found to be 31.6 µM. Also, in experiment [2] (counterscreen), the “COUNTERSCREEN Efficacy (%)” value is given as -20% and the “COUNTERSCREEN Curve Class” value is listed as 4.

Take `CN1CCN(c2cccc(Nc3nn4c(=O)c5ccc(Br)cc5nc4s3)c2)CC1.Cl` [NCGC00187814-01]: the “Efficacy (%) (confirmatory screen)” value in experiment [1] (confirmatory screen) is -63%. The “Confirm? (confirmatory screen)” value in experiment [1] (confirmatory screen, YES/NO) is “YES”. Also, in experiment [1] (setting [3]), the “Curve Class (confirmatory screen)” value is -2.4. Besides, the IC50 in experiment [1] (setting [4]) stood at 50.1 µM; in experiment [1] (setting [16]), 39.8 µM; in experiment [2] (counterscreen) it was 50.1 µM. Besides, the “Efficacy (%)” value in experiment [1] (setting [15]) is on record as -28%. Further, the “Efficacy (%) (counterscreen)” value in experiment [2] (counterscreen) is -54%. Besides, in experiment [2] (setting [7]), the “Curve Class (counterscreen)” value is -2.2.
